Data on eleven compounds can be found in patent publication US12077503B2, “Substituted cyclic amides and their use as herbicides” (FMC CORPORATION, priority 2015, dated 2024).

Common to all, as to format: in vivo
For assay [1], the system named is pigweed (Amaranthus retroflexus). The experiment in a line: Test A postemergence. Particulars: Amaranthus retroflexus, post-emergence, 240 h; for pest or weed control at 125 g/ha: 125 g ai/ha; for pest or weed control at 500 g/ha: 500 g ai/ha. The procedure, abridged: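 Preemergence soil spray on seeded pots or post-emergence spray on 1–2 leaf plants, in loam–sand blend. Greenhouse ~10 d. Visual rating 0–100 against untreated plants.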

Assay [2] concerns barnyardgrass (Echinochloa crus-galli). The experiment in a line: Test B flooded paddy test. Conditions: Echinochloa crus-galli, 250 g ai/ha, Flood, read-out: Barnyardgrass plant response rating. The procedure, abridged: (§1)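 Visual ratings (0 none to 100 complete control) are relative to untreated plants, taken 13–15 d after treatment in a greenhouse. Test material went straight into floodwater standing 3 cm above the soil, kept constant, on plants at the 2-leaf stage.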

Assay [3] relates to ducksalad (Heteranthera limosa). Description: Test B flooded paddy test. Particulars: Heteranthera limosa, 250 g ai/ha, Flood, read-out: Ducksalad plant response rating. The procedure, abridged: as §1
The subject of the next assay is rice (Oryra sativa). The experiment in a line: Test B flooded paddy test. Conditions: Oryza sativa, 250 g ai/ha, Flood, read-out: Rice plant response rating. The procedure, abridged: as §1
Assay [4] concerns sedge, umbrella (small-flower umbrella sedge, Cyperus difformis). Description: Test B flooded paddy test. Conditions: Cyperus difformis, 250 g ai/ha, Flood, read-out: Sedge, Umbrella plant response rating. The procedure, abridged: as §1
[5] abbreviates: postemergence, visual injury on 0 to 100 scale (0 no effect, 100 complete control), approx. 10 d, read-out: Pigweed plant response rating.
Setting [6] is: 0 to 100 scale where 0 is no effect and 100 is complete control.
Setting [7] is: Postemergence, visual injury after approximately 10 d, 0 to 100 scale where 0 is no effect and 100 is complete control, read-out: Plant response rating, Pigweed.
[8] abbreviates: scale of 0 to 100 where 0 is no effect and 100 is complete control.
Setting [9] is: postemergence, visual injury rating after approximately 10 d, read-out: Pigweed plant response rating (0 to 100 scale, 0 no effect, 100 complete control).
[10] abbreviates: postemergence, 0 to 100 scale, 0 is no effect, 100 is complete control, read-out: Pigweed plant response rating.

Read-outs that look alike come from different tables or passages of the source.

As for `O=C(Nc1ccccc1C(F)(F)F)[C@H]1C(=S)NC[C@@H]1c1ccc(C(F)(F)F)cc1` (racemic) [Compound 1049], the pest or weed control at 125 g/ha in assay [1] (setting [5]) came out at 10%. Also, the pest or weed control at 250 g/ha stood at 20% in assay [2] (setting [6]), 70% in assay [3] (setting [6]), 0% in the assay with rice (Oryra sativa) (setting [6]) and 0% in assay [4] (setting [6]).
Regarding `CSc1ccccc1NC(=O)[C@H]1C(=O)NC[C@@H]1c1cc(F)cc(Cl)c1` [Compound 977], the pest or weed control at 125 g/ha in assay [1] (setting [7]) is 30%. The pest or weed control at 250 g/ha in assay [2] (setting [8]) came to 15%; in assay [3] (setting [8]), 100%; in the assay with rice (Oryra sativa) (setting [8]) it was 15%; in assay [4] (setting [8]), 0%.
On to `CN1C[C@H](c2cccc(F)c2)[C@@H](C(=O)Nc2ccccc2S(C)(=O)=O)C1=O` [Compound 824], for which the pest or weed control at 125 g/ha in assay [1] (setting [9]) came out at 0%. Moreover, the pest or weed control at 250 g/ha in assay [2] (setting [8]) worked out at 65%; in assay [3] (setting [8]) it was 95%; in the assay with rice (Oryra sativa) (setting [8]), 0%; in assay [4] (setting [8]), 0%.
With `CN1C[C@H](c2csc(C(F)(F)F)c2)[C@@H](C(=O)Nc2cccc(F)c2F)C1=O` [Compound 959], the pest or weed control at 125 g/ha in assay [1] (setting [7]) stood at 0%. For the same compound, the pest or weed control at 250 g/ha was found to be 60% in assay [2] (setting [8]), 100% in assay [3] (setting [8]), 20% with rice (Oryra sativa) (setting [8]) and 0% in assay [4] (setting [8]).
For `CN1C[C@H](c2cc(F)c(F)c(F)c2)[C@@H](C(=O)Nc2cccc(F)c2F)C1=O` [Compound 879], in assay [1] (setting [9]), the pest or weed control at 125 g/ha stood at 20%. The pest or weed control at 250 g/ha in assay [2] (setting [8]) came out at 90%; in assay [3] (setting [8]), 100%; in the assay on rice (Oryra sativa) (setting [8]) it was 0%; in assay [4] (setting [8]), 50%.
The like results for `COc1c(F)ccc([C@H]2CN(C)C(=O)[C@@H]2C(=O)Nc2ccccc2C(F)(F)F)c1Cl` [Compound 896] were, in that order, 20%, 45%, 25%, 20% and 0%.
As to `O=C(Nc1cccc(F)c1F)[C@H]1C(=S)NC[C@@H]1c1ccc(C(F)(F)F)cc1` (racemic) [Compound 1048], the pest or weed control at 125 g/ha in assay [1] (setting [5]) is 30%. In addition, the pest or weed control at 250 g/ha in assay [2] (setting [6]) stood at 30%; in assay [3] (setting [6]), 50%; in the assay on rice (Oryra sativa) (setting [6]), 0%; in assay [4] (setting [6]) it was 0%.
For `CN1C[C@H](c2cscn2)[C@@H](C(=O)Nc2ccccc2F)C1=O` [Compound 1112], the pest or weed control at 125 g/ha in assay [1] (setting [5]) was found to be 0%. Also, the pest or weed control at 500 g/ha in assay [1] (setting [10]) amounted to 0%. The pest or weed control at 250 g/ha is 0% in assay [2] (setting [6]), 0% in assay [3] (setting [6]), 15% with rice (Oryra sativa) (setting [6]) and 40% in assay [4] (setting [6]).
Turning to `CN1CC[C@H](c2ccc(OC(F)(F)F)cc2)[C@@H](C(=O)Nc2ccccc2C(F)(F)F)C1=O` [Compound 998], the pest or weed control at 125 g/ha in assay [1] (setting [7]) was 0%. Besides, the pest or weed control at 250 g/ha (in assay [2] (setting [8]); in assay [3] (setting [8]); with rice (Oryra sativa) (setting [8]); in assay [4] (setting [6])) was 0% each time.
With `CN1CC[C@H](c2ccccc2)[C@@H](C(=O)Nc2ccccc2F)C1=O` [Compound 1032], in assay [1] (setting [5]), the pest or weed control at 125 g/ha is 0%. The pest or weed control at 500 g/ha in assay [1] (postemergence, visual injury, 0 to 100 scale (0 no effect, 100 complete control), approx. 10 d, read-out: Plant response rating, Pigweed) was 0%. In addition, the pest or weed control at 250 g/ha stood at 0% in assay [2] (setting [6]), 20% in assay [3] (setting [6]), 0% with rice (Oryra sativa) (setting [6]) and 0% in assay [4] (setting [6]).
As to `Cc1c(F)cccc1NC(=O)[C@H]1C(=O)NC[C@@H]1c1cc(F)c(F)c(F)c1` [Compound 1125], in assay [1] (setting [5]), the pest or weed control at 125 g/ha was determined as 0%. Also, the pest or weed control at 500 g/ha in assay [1] (setting [10]) turned out to be 0%. Moreover, the pest or weed control at 250 g/ha turned out to be 70% in assay [2] (setting [6]), 100% in assay [3] (setting [6]), 0% in the assay with rice (Oryra sativa) (setting [6]) and 0% in assay [4] (setting [6]).
